Consider 3 compounds from ChEMBL document CHEMBL2074174, “Directional trans-epithelial transport of organic anions in porcine LLC-PK1 cells that co-express human OATP1B1 (OATP-C) and MRP2” (Biochem Pharmacol, 2005).

For the data set, the target named is Canalicular multispecific organic anion transporter 1/Solute carrier organic anion transporter family member 1B1 (Homo sapiens, UniProt Q92887+Q9Y6L6). Kind of data set: TP_TRANSPORTER: Transepithelial Transport (basal to apical) in OATP1B1/MRP2 double transfected LLC-PK1 cell. In kind it is functional, cell-based. The conditions noted are these: pig.

Take `C[C@]12CC[C@@H]3c4ccc(O)cc4CC[C@H]3[C@@H]1CC[C@@H]2O[C@@H]1O[C@H](C(=O)O)[C@@H](O)[C@H](O)[C@H]1O` [ESTRADIOL 17B GLUCURONIDE]: the Activity result is “substrate [(+)]”.
With `C[C@]12CC[C@@H]3c4ccc(OS(=O)(=O)O)cc4CC[C@H]3[C@@H]1CCC2=O` [ESTRONE SULFURIC ACID] the entry was “substrate [(+)]”; with `C[C@]12CC[C@H](OS(=O)(=O)O)CC1=CC[C@@H]1[C@@H]2CC[C@]2(C)C(=O)CC[C@@H]12` [PRASTERONE SULFURIC ACID], “substrate [(+)]”.
